Measurements published in publication PMC5215716, “A Target-Based Whole Cell Screen Approach To Identify Potential Inhibitors of Mycobacterium tuberculosis Signal Peptidase” (ACS Infectious Diseases, 2016).
Values after ≈ are worked out from the molar mass of the structure shown.

Tests used:
[1] = system: M. tuberculosis strain SPAM13C (LepB-UE); assay: microbe, parasite or virus in culture; assay type: cell-based, Mycobacterium tuberculosis; settings: for MIC: Mycobacterium tuberculosis, 120 h, read-out: LepB-UE MIC; for MIC / LepB-UE MIC: M. tuberculosis strain SPAM13C, OD590 after 5 days at 37 °C, average ± SD of at least two experiments, b = single value; for Change in potency against LepB-UE compared to compound 1: decrease in potency relative to compound 1
[2] = system: wild-type (wt) M. tuberculosis strain; assay: microbe, parasite or virus in culture; assay type: cell-based, Mycobacterium tuberculosis; settings: for MIC: Mycobacterium tuberculosis, 120 h, read-out: WT MIC
[3] = in vitro; assay type: cell-based, African green monkey; settings: African green monkey
Protocol: Cytotoxicity against African green monkey adult kidney cell (Vero cells) was determined as previously described using CellTiter-Glo reagent.[44] The concentration causing 50% growth inhibition (IC50) was calculated by fitting the inhibition curves using the Levenberg–Marquardt algorithm.

[4] = biological target: T1, LepB (Mycobacterium tuberculosis, UniProt P9WKA1); assay: LepB membrane assay (fluorogenic signal peptide cleavage by cell membrane fraction); assay type: biochemical; settings: M. tuberculosis H37Rv cell membrane fraction, 2 μM peptide substrate, 4 h at 37 °C
T1 construct: we used purified membrane fractions to develop an in vitro assay for signal peptide cleavage; host or cells: γ-irradiated whole M. tuberculosis H37Rv; Triton X-114 membrane fraction
T1 sequence (P9WKA1 1-294): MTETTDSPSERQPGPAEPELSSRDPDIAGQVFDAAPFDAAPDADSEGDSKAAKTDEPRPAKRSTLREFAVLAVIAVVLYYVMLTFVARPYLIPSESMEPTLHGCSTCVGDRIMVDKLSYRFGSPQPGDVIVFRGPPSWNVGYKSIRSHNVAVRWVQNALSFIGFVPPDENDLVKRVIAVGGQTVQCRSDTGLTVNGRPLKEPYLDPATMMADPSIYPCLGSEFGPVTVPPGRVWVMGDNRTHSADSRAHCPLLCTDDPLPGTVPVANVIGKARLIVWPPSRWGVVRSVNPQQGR

[5] = […], OD590 after 5 days at 37 °C, average ± SD of at least two experiments, b = single value

Row | Compound | MIC [1] [µM] | MIC [2, 5] [µM] | CC50 [3] [µM] | IC50 [4] [µM] | LepB-UE MIC [1] [µM] | WT MIC [2, 5] [µM] | Increase in potency against wt compared to 16 ([2]; relative to compound 16) [fold] | Change in potency against LepB-UE compared to compound 1 [1]
1 | C/C(=N\Nc1nc(C)cc(C)n1)c1ccccn1 [Compound 1] | 3 ± 1.1 (≈ 0.724 µg/mL) | 18 ± 1 (≈ 4.34 µg/mL) | 2.3 | 39 | – | – | – | –
2 | Oc1ccccc1/C=N/Nc1nc(-c2ccccc2)cs1 [Compound 2] | 9.3 ± 3.2 (≈ 2.75 µg/mL) | 43 ± 26 (≈ 12.7 µg/mL) | 13 | > 200 | – | – | – | –
3 | O=[N+]([O-])c1ccc(O)c(/C=N/Nc2ccccn2)c1 [Compound 3] | 4.7 (≈ 1.21 µg/mL) | 11 (≈ 2.84 µg/mL) | 2.9 | 12 | – | – | – | –
4 | Cc1cnn(-c2cc(N/N=C/c3ccccc3O)ncn2)c1 [Compound 4] | 4.5 ± 2.5 (≈ 1.32 µg/mL) | 10 ± 7 (≈ 2.94 µg/mL) | 9.2 | > 200 | – | – | – | –
5 | Cc1ccc2cc(C)c(N/N=C/c3cc(Br)ccc3O)nc2c1 [Compound 5] | 7.4 ± 3.4 (≈ 2.74 µg/mL) | > 200 | 5 | > 200 | – | – | – | –
6 | Cc1nc2ccccc2nc1N/N=C/c1ccc(O)c(C)c1O [Compound 6] | 3.8 ± 1.3 (≈ 1.17 µg/mL) | 26 ± 12 (≈ 8.02 µg/mL) | 8.7 | > 200 | – | – | – | –
7 | Cc1nc2ccccc2nc1N/N=C/c1c(O)ccc2ccccc12 [Compound 7] | 3.9 ± 1.7 (≈ 1.28 µg/mL) | 14 ± 3 (≈ 4.6 µg/mL) | 5.2 | 130 | – | – | – | –
8 | Oc1ccc(/C=N/Nc2ccc3ccccc3n2)c(O)c1 [Compound 8] | 3.6 ± 1.1 (≈ 1.01 µg/mL) | > 200 | 6.7 | > 200 | – | – | – | –
9 | Cc1ccc(Nc2nc(N/N=C/c3ccccc3O)nc(N3CCOCC3)n2)c(Br)c1 [Compound 9] | 11 ± 1 (≈ 5.33 µg/mL) | 57 ± 24 (≈ 27.6 µg/mL) | 13 | > 200 | – | – | – | –
10 | COc1ccc(Nc2nc(NCc3ccco3)nc(N/N=C/c3ccccc3O)n2)cc1 [Compound 10] | 5.4 ± 2.6 (≈ 2.33 µg/mL) | > 200 | 4.3 | > 200 | – | – | – | –
11 | C/C(=N\NC(=O)c1ccc(N2CCCC2=O)cc1)c1ccccn1 [Compound 11] | 3.5 to 15 (≈ 1.13 to 4.84 µg/mL) | < 10 | 6.1 | 26 | 3.5 ± 1.8 | 14 ± 7 | – | –
12 | O=C(N/N=C/c1cccc2cccnc12)c1ccn(Cc2ccc(Cl)cc2)n1 [Compound 12] | 3.5 to 15 (≈ 1.36 to 5.85 µg/mL) | 22 ± 2 (≈ 8.58 µg/mL) | 34 | > 200 | 6.3 ± 3.5 | – | – | –
13 | O=C(N/N=C/c1cccc2cccnc12)c1ccn(Cc2ccc(Cl)cc2Cl)n1 [Compound 13] | 3.5 to 15 (≈ 1.49 to 6.36 µg/mL) | 18 ± 5 (≈ 7.64 µg/mL) | 21 | > 200 | 4.7 ± 0.6 | – | – | –
14 | CCOC(=O)CN1C(=O)/C(=N\NC(=O)c2ccccn2)c2ccccc21 [Compound 14] | 3.5 to 15 (≈ 1.23 to 5.29 µg/mL) | > 200 | 32 | > 200 | 4.9 ± 1.9 | – | – | –
15 | Cc1ccc(-c2cc(C(=O)N/N=C/c3ccccn3)[nH]n2)cc1 [Compound 15] | – | > 200 | 63 | > 200 | 15 ± 2.5 | – | – | –
16 | N=C(N/N=C/c1cc([N+](=O)[O-])ccc1O)c1ccccn1 [Compound 16] | 10 ± 3.4 (≈ 2.85 µg/mL) | > 200 | > 100 | 119 | – | – | – | –
17 | N=C(N/N=C/c1ccccc1O)c1ccccn1 [Compound 17] | 6.7 ± 1.6 (≈ 1.61 µg/mL) | – | > 100 | – | – | – | ~4 | –
18 | C/C(=N\NC(=S)Nc1cccc(C)c1)c1ccccc1O [Compound 18] | 9 ± 5.8 (≈ 2.69 µg/mL) | 18 ± 12 (≈ 5.39 µg/mL) | 11 | – | – | – | – | –
19 | CSC(=S)N/N=C(\c1ccccc1)c1ccccn1 [Compound 19] | 6 ± 4.2 (≈ 1.72 µg/mL) | 10 ± 3 (≈ 2.87 µg/mL) | 2.4 | – | – | – | – | –
20 | C/C(=N\Nc1nc(C)cc(C)n1)c1ccco1 [Compound 20] | – | > 200 | > 100 | 74 | – | – | – | at least 10 fold
21 | C/C(=N\Nc1nc(C)cc(C)n1)c1cccs1 [Compound 21] | – | > 200 | > 100 | 120 | – | – | – | at least 10 fold
22 | C/C(=N\Nc1nc(C)cc(C)n1)c1ccccc1 [Compound 22] | – | > 200 | > 100 | > 200 | – | – | – | at least 10 fold
23 | C/C(=N\Nc1nc(C)cc(C)n1)c1cccc(O)c1 [Compound 23] | 30 to 90 (≈ 7.69 to 23.1 µg/mL) | 115 (≈ 29.5 µg/mL) | > 100 | 140 | 54 ± 2 | – | – | at least 10 fold
